In brackets after ≈: the same amount, converted by molar mass.
How the values were obtained:
[1] = In vitro dissolution of UPA comicronizates (gelatin capsules, paddle device, Eur. Pharmacopoeia §2.9.3); format: physicochemical; settings: 30 mg UPA capsule, 900 ml gastric pH buffer, 0.1% SDS, 37°C, 50 rpm, mean of 3
Procedure: The co-micronization product has improved active ingredient in vitro dissolution properties. In certain embodiments, the co-micronization product according to the invention is characterized in that at least 55% of the active ingredient that it contains is released within 45 minutes when said co-micronization product is subjected to an in vitro dissolution test, preferably according to the European Pharmacopoeia §2.9.3. The in vitro dissolution test can be carried out using any commercially available device. Example 1 hereinafter presents implementing conditions for determining the in vitro dissolution rate of a comicronizate according to the invention. Briefly, an amount of comicronizate representing 30 mg of active ingredient is placed in a gelatin capsule. This capsule is then placed in 900 ml of a medium buffered at gastric pH, comprising 0.1% of SDS, at 37±0.5° C., and subjected to stirring at 50 revolutions per minute (rpm) (speed of rotation of the paddles of the dissolution device). The dissolution of the active ingredient in the medium can be monitored by spectrophotometry, for example at the maximum wavelength of absorbance. For the purposes of the invention, a gastric pH is typically a pH of 1 to 3.
For each comicronizate obtained, gelatin capsules containing an amount of comicronizate corresponding to 30 mg of UPA per capsule were prepared. The studies of the in vitro dissolution of UPA as comicronizate were carried out using these capsules according to the method described in the European Pharmacopoeia in §2.9.3, using a paddle dissolution device.
For each comicronizate, a capsule containing said comicronizate was placed in a bowl of the dissolution device containing 900 ml of a dissolution medium. The dissolution medium is an aqueous solution buffered at gastric pH and comprising 0.1% of SDS. The conditions for carrying out the in vitro dissolutions are the following: • Paddle rotation speed: 50 revolutions per minute (rpm) • Temperature: 37° C.±0.5° C.
The dissolution of the UPA was monitored by spectrophotometry.
By way of control experiment, a gelatin capsule containing 30 mg of ulipristal acetate micronized alone (i.e. UPA micronized in the absence of any co-micronization excipient) was used. For each comicronizate, the dissolution experiment was reproduced 3 times.
These various active ingredient matrices were subjected to an in vitro dissolution test as described above in the “Materials and Methods” section.

[2] = UPA solubility as a function of pH; format: physicochemical
[3] = single dose of 30 mg, within 120 hours following unprotected or poorly protected intercourse; cited from earlier work
[4] = chronic administration, 5 mg or 10 mg per day; cited from earlier work

## CC(=O)O[C@]1(C(C)=O)CCC2C3CCC4=CC(=O)CCC4=C3[C@@H](c3ccc(N(C)C)cc3)C[C@@]21C (stereo partly drawn) [UPA, 17α-acetoxy-11β-(4-N,N-dimethylaminophenyl)-19-norpregna-4,9-diene-3,20-dione]
[1]; time 0 min
  Percentage of UPA released relative to the initial amount of UPA per gel capsule: 0.00%
[1]; time 1 min
  Percentage of UPA released relative to the initial amount of UPA per gel capsule: 0.00%
[1]; time 5 min
  Percentage of UPA released relative to the initial amount of UPA per gel capsule: 5.50%
[1]; time 7.5 min
  Percentage of UPA released relative to the initial amount of UPA per gel capsule: 15.00%
[1]; time 10 min
  Percentage of UPA released relative to the initial amount of UPA per gel capsule: 22.30%
[1]; time 15 min
  Percentage of UPA released relative to the initial amount of UPA per gel capsule: 30.00%
[1]; time 20 min
  Percentage of UPA released relative to the initial amount of UPA per gel capsule: 34.30%
[1]; time 30 min, listed as Micronized UPA
  Percentage of UPA released relative to the initial amount of UPA per gel capsule: 39.50%
[1]; time 30 min, listed as micronized ulipristal acetate
  Percentage of UPA released relative to the initial amount of UPA per gel capsule: approximately 39%
[1]; time 45 min
  Percentage of UPA released relative to the initial amount of UPA per gel capsule: 47.50%
[1]; time 60 min
  Percentage of UPA released relative to the initial amount of UPA per gel capsule: 53.80%
[2]; pH 1.2, simulated gastric fluid
  solubility: 22700 µg/mL (≈ 47700 µM)
[2]; pH 4.5, aqueous buffer
  solubility: 39 µg/mL (≈ 82 µM)
[2]; pH 6.8, aqueous buffer
  solubility: 5 µg/mL (≈ 10.5 µM)
[3]
  Prevention of unwanted pregnancy: makes it possible to prevent an unwanted pregnancy
[4]
  Symptoms associated with uterine fibromas: significantly reduce the symptoms associated with uterine fibromas
